Measured values taken from patent US9464141B2, “Anti-ETBR antibodies and immunoconjugates” (Genentech, Inc., priority 2012, dated 2016).
Starred links: 1 amine or outer side, 2 acyl side, 3 side chain; linkers in the order of their positions; H or OH if unused. Non-standard residues stand in square brackets, D forms with d. Residues, ends and D or L forms follow the SMILES beside them. *: point of attachment. Dolaproine = CO[C@@H]([C@@H]1CCCN1)[C@@H](C)C(=O)O; Hexanoyl(6-maleimido) = O=C1C=CC(=O)N1CCCCCC(=O)*; Dil = CC[C@H](C)[C@H](NC)[C@@H](CC(=O)O)OC; PABC = O=C(OCc1ccc(N[*:1])cc1)[*:2]; X1 = C[C@@H](N*)[C@@H](O)c1ccccc1; Cit = NC(=O)NCCC[C@H](N)C(=O)O; NMeV = CN[C@H](C(=O)O)C(C)C

How the values were obtained:
Assay in all cases: In vitro cell proliferation, CellTiter-Glo, 5 days
Format in all cases: cell-based
Settings in all cases: free linker-drug (without antibody)
[1] = test system: Parental UACC-257X2.2 cells
Description: (§1) In vitro cell proliferation of the cell lines in the presence of the immunoconjugates was assessed. Cells were plated at 1,500 cells per well in 50 μL of normal growth medium in 96-well clear-bottom plates. Twenty-four hours later, an additional 50 μL of culture medium with serial dilutions of immunoconjugates (ch5E9-vc-MMAE or control anti-gD-vc-MMAE) were added to triplicate wells. Five days later, cell survival was determined using CellTiter-Glo Luminescent Cell Viability Reagent (G7572, Promega Corporation, Madison, Wis.) using an EnVision 2101 Mutilabel Reader (Perkin-Elmer, Waltham, Mass.).

[2] = test system: In vitro-derived resistant UACC-257X2.2 cells
Description: For resistance developed in vitro, UACC-257X2.2 cells were adapted to increasing concentrations of anti-ETBR-vc-MMAE in culture dishes over the course of two months.
as §1

[3] = test system: In vivo-derived resistant UACC-257X2.2 cells
Description: For resistance developed in vivo, NCr nude mice (Taconic, Hudson, N.Y.) were inoculated subcutaneously in the dorsal right flank with 5 million UACC-257X2.2 cells in HBSS with Matrigel. UACC-257X2.2 cells are derived from UACC-257 cells (National Cancer Institute) and optimized for growth in vivo as follows. UACC-257 cells were injected subcutaneously in the right flank of female NCr nude mice to induce tumor growth. One tumor was harvested and grown in vitro (referred to as UACC-257X1.2 cell line). The UACC-257X1.2 line was injected again subcutaneously in the right flank of female NCr nude mice to improve the growth of the cell line in vivo. A tumor from the second injection round was collected and again adapted for in vitro growth to generate UACC-257X2.2.
Ten mice inoculated with UACC-257X2.2 cells were dosed with 3 mg/kg hu5E9.v1-MC-vc-PAB-MMAE intravenously on day 0. […]
In vitro cell proliferation of the cell lines in the presence of the immunoconjugates was assessed. […] Five days later, cell survival was determined using CellTiter-Glo Luminescent Cell Viability Reagent (G7572, Promega Corporation, Madison, Wis.) using an EnVision 2101 Mutilabel Reader (Perkin-Elmer, Waltham, Mass.).

## CC[C@H](C)[C@@H]([C@@H](CC(=O)N1CCC[C@H]1[C@H](OC)[C@@H](C)C(=O)N[C@H](C)[C@@H](O)c1ccccc1)OC)N(C)C(=O)[C@@H](NC(=O)[C@H](C(C)C)N(C)C(=O)OCc1ccc(NC(=O)[C@H](CCCNC(N)=O)NC(=O)[C@@H](NC(=O)CCCCCN2C(=O)C=CC2=O)C(C)C)cc1)C(C)C [free MC-vc-PAB-MMAE] ({Hexanoyl(6-maleimido)}-V[Cit][PABC][NMeV]V[Dil][Dolaproine]-X1)
[1]
  EC50: 0.28 nM
[2]
  EC50: 3.5 nM
[3]
  EC50: 0.77 nM
